We go through one molecule from patent US7618958B2, “Stereospecific anxiolytic and anticonvulsant agents with reduced muscle-relaxant, sedative-hypnotic and ataxic effects” (WISYS Technology Foundation, Inc., priority 2004, dated 2009).

In one series the target is T1, α1β3γ2 GABAA receptors (Rattus norvegicus, UniProt P18508+P62813).
T1 construct: expressed in transfected cells; host or cells: Xenopus laevis oocytes injected with cRNA
The experiment in a line: Two-electrode voltage clamp in Xenopus oocytes, α1β3γ2. The format is cell-based. Conditions: FIG. 1, Xenopus oocytes. How it is done:
1. Effects of SH-053-S—CH3 8 on GABA(A) receptors were tested by two-electrode voltage clamp experiments in cRNA injected Xenopus oocytes that functionally expressed several subtype combinations of GABAA receptors. […] This oocyte profile is indicative of an anxiolytic agent devoid of sedative, ataxic and anterograde amnestic side effects.
The methods were based on those published previously. See Li, X., et al., (2003) J. Med. Chem. 46: 5567-5570.
Cloning of GABAA receptor subunits α1, β3 and γ2 into pCDM8 expression vectors (Invitrogen, CA) has been described elsewhere ([…]). GABAA receptor subunit α4 was cloned in an analogous way. cDNAs for subunits α2, α3 and α5 were gifts from P. Malherbe and were subcloned into pCI-vector (Li, et al., 2003). cDNA for subunit α6 was a gift from P. Seeburg and was subcloned into the vector pGEM-3Z (Promega). After linearizing the cDNA vectors with appropriate restriction endonucleases, capped transcripts were produced using the mMessage mMachine T7 transcription kit (Ambion, Tex.). The capped transcripts were polyadenylated using yeast poly(A) polymerase (USB, OH) and were diluted and stored in diethylpyrocarbonate-treated water at −70° C. (Li, et al., 2003). […]
In general terms: Two-electrode voltage clamp holds a large cell at a set potential and records current.

T1 sequence (P62813 28-455): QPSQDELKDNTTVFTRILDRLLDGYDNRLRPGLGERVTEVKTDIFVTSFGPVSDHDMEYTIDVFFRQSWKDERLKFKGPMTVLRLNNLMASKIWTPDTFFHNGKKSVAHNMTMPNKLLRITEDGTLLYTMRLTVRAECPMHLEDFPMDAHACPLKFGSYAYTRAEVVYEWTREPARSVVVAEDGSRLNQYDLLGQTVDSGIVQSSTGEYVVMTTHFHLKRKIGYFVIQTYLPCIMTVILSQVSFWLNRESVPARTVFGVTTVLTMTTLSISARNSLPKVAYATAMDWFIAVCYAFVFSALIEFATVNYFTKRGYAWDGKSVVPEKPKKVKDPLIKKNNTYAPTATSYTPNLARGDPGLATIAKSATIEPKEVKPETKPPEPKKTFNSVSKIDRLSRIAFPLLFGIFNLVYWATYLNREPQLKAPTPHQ
T1 sequence (P63079 26-473 partner): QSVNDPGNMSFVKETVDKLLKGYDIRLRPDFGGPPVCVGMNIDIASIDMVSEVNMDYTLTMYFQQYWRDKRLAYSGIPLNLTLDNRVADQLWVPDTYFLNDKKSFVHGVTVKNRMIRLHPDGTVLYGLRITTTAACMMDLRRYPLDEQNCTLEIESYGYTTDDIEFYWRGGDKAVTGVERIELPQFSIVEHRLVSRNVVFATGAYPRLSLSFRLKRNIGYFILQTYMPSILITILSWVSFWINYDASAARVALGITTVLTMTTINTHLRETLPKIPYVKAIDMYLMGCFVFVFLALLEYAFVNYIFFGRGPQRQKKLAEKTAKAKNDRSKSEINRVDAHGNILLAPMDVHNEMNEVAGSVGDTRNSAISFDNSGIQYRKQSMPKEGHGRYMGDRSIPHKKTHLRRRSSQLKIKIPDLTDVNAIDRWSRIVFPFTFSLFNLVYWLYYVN
T1 sequence (P18508 39-466): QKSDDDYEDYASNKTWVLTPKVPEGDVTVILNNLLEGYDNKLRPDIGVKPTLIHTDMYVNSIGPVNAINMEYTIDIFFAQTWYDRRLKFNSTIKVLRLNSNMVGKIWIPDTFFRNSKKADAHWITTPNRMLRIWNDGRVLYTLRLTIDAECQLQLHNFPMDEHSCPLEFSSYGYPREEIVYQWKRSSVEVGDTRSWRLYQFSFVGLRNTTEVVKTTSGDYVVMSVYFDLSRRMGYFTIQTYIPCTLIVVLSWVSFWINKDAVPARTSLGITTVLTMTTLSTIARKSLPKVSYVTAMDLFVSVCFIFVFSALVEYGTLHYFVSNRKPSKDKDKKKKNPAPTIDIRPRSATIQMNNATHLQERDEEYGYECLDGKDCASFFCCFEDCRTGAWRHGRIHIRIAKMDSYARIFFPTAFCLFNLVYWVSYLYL

Turning to `C#Cc1ccc2c(c1)C(c1ccccc1)=NC(C)c1c(C(=O)OCC)ncn1-2` (centres unmarked) [SH-053-S—CH3, 8-Ethynyl-4-methyl-6-phenyl-4H-2,5,10b-triaza-benzo[e]azulene-3-carboxylic acid ethyl ester], the melting point (commonly the temperature, or range, at which the solid turns liquid) is 197 to 199 °C. Further, the “efficacy at α1β3γ2 subtypes” value on α1β3γ2 GABAA receptors is given as “almost no efficacy”.
